Assay results from publication PMC9918889, “Alkaloids and Styryl lactones from Goniothalamus ridleyi King and Their α-Glucosidase Inhibitory Activity” (Molecules, 2023).
In brackets after ≈: the same amount, converted by molar mass.

Legend:
Plasmodium falciparum = tested on: Plasmodium falciparum; set-up: method as in PMID 19573585; conditions: cited from earlier work
HCT116 = tested on: HCT116; set-up: method as in PMID 31918304; conditions: colon cancer cell line HCT116; read-out: IC50, cytotoxicity against HCT116; cited from earlier work
α-glucosidase = assay: colorimetric α-glucosidase inhibitory assay; type: biochemical; conditions: for %Inhibition at 250 µg/mL: sample at 250 µg/mL; for IC50: substrate p-nitrophenyl α-D-glucoside, 37 °C
Description: The previously reported approach was used to perform a colorimetric α-glucosidase assay. Briefly, the tested samples (50 µL) were combined with 50 µL of the α-glucosidase enzyme solution (0.05 U/mL) and preincubated at 37 °C for 5 min. The substrate (50 µL, c 1 mM), p-nitrophenyl α-D-glucoside, was added and incubated at 37 °C for 30 min. Then, 50 µL of Na2CO3 (0.3 M) was added. The absorption of the mixture was measured at 405 nm.

Molecule	%Inhibition at 250 µg/mL (α-glucosidase)	other results
CC(=O)O[C@H]1[C@H]2OC(=O)C=C[C@@H]2O[C@H]1c1ccccc1 [(+)-3-Acetylaltholactone]	–	IC50, antiplasmodial activity (Plasmodium falciparum): 2.6 µg/mL (≈ 9.48 µM)
O=C1C=CCC(/C=C\c2ccccc2)O1 (stereo not shown) [(Z)-6-styryl-5,6-dihydro-2-pyranone]	–	IC50 (HCT116): 22.2 µM
C[C@H]1O[C@H](O[C@H]2[C@H](O)[C@@H](O)[C@@H](O[C@H]3[C@H](O)[C@@H](O)C(O)O[C@@H]3CO)O[C@@H]2CO)[C@H](O)[C@@H](O)[C@@H]1N[C@H]1C=C(CO)[C@@H](O)[C@H](O)[C@H]1O (stereo partly shown) [Acarbose, reference compound]	88.1%	–
COc1cccc2c1cc1c3c(cc4c(c32)OC2Oc3c(cc5c6c(cc7ccccc7c36)NC5=O)OC2O4)C(=O)N1 (stereo not shown) [Compound 1, Gonioridleylactam]	99.6%	IC50 (α-glucosidase): 138.9 ± 0.9 µM; melting point: 296 to 298 °C
Cn1cc(CO)c2c1C(=O)c1ccccc1C2=O [Compound 2, 3-hydroxymethyl-1-methyl-1H-benz[f]indole-4,9-dione]	99.3%	–
Cn1cc(C(=O)O)c2c1C(=O)c1ccccc1C2=O [Compound 3, goniochelienic acid B]	99.5%	–
C[C@@H]1C2=C(NC(=O)[C@@H]1O)C(=O)c1ccccc1C2=O [Compound 4, griffithazanone A]	98.0%	–
O=C1C=CC(=CC=Cc2ccccc2)O1 [Compound 7, 5-(3-phenyl-2-propenylidene)-2(5H)-furanone]	98.6%	IC50 (α-glucosidase): 1.25 ± 0.4 µM
O=C1C=C[C@@H](O)[C@@H](/C=C/c2ccccc2)O1 [Compound 9, (−)-5-hydroxygoniothalamin]	99.8%	–
(−)-nordicentrine	–	IC50, antiplasmodial activity (Plasmodium falciparum): 0.3 µg/mL
